# “Also recorded” adds a separate entry of the source.
# Legend:
# [1] = tested on: CFPAC-1 pancreatic cell line; experiment: Cell proliferation and cytotoxicity assay (MTS or crystal violet); format: cell-based, human; details: CFPAC-1, 72 hours; prodrug tested as nanoparticles
# Experimental: (§1) Cell proliferation and cytotoxicity assays were performed in different cell lines by MTS (3-(4,5-dimethylthiazol-2-yl)-5-(3-carboxymethoxyphenyl)-2-(4-sulfophenyl)-2H-tetrazolium) assay. Cells were treated with free drug or prodrug nanoparticles, and in different concentrations in medium supplemented with 10% FBS and incubated for 72 hours.
# The cytotoxicity of CP-prodrug nanoparticles made from sole CP-amphiphiles was evaluated in comparison to native CP in a CFPAC-1 pancreatic cell line.
# (§2) The cell lines were exposed to media with varying concentrations of the treatments (100-0.2 μM) and incubated for 72 hours. Cell viability was determined using the MTS assay or crystal violate assay and was conducted in triplicate to derive the IC50 values.
# [2] = tested on: MIAPACA-2 (human pancreatic cancer) cell-derived xenograft; experiment: In vivo tumour inhibition, resistant MIAPACA-2 xenograft (tumour volume, body weight, kidney histopathology); parameters: species or system NOD-SCID mice; details: for histopathology of the kidney: 0.75 mg/Kg CP or equivalent, H & E sections
# Description: Subcutaneous xenografts were established by implanting 2-3×10^6 cells from cultures of CFPAC-1 or MIAPACA-2 human pancreatic cancer cell lines. Six-week-old male Nonbobese diabetic/severe combined immunodeficient (NOD/SCID) or nonobese diabetic/severe combined immunodeficient-gamma (NSG) mice were obtained from Animal Research Centre, Perth, Australia. These mice were acclimatised for one week in the Kearns Facility, Kolling Institute of Medical Research, the University of Sydney, following standard animal regulation and strict health controls allowing transfer between institutions. Animal care and housing was undertaken in accordance with institutional guidelines of Northern Sydney Local Health District (NSLHD) Animal Care & Ethics Committee (ACEC) (Protocol number 1011-015A).
# Tumour growth was measured at least twice a week. When tumours were ˜40-100 mm3, the treatments were administered two times weekly by intraperitoneal injection (IP.) for control and gemcitabine alone groups, and intravenously (IV.) injection for nanoparticles groups for 4 weeks. At 30 days each experiment organs and tumours were harvested for analysis.
# Tissue samples were fixed in 10% phosphate buffered formalin and embedded in paraffin. Formalin-fixed, paraffin embedded sections were cut 4-μm thick sections and stained with Mayer's hematoxylin and eosin (H & E). For immunohistochemistry, sections were incubated with the specific antibodies then using the Dako Envision+System-HRP labelled polymer detection kit (DaKo) according to manufacturers' protocol and counterstained with Mayer's hematoxylin and Scott's bluing solution. After mounting, sections were observed under a light microscope (ECLIPSE 80i; Nikon,
# The evaluation of anticancer drugs in vivo is essential as it provides insight into the expected clinical outcomes of a drug. An in vivo evaluation of the anti-cancer efficacy of the CP-prodrug nanoparticles vs. CP was conducted on a resistant MIAPACA-2 (human pancreatic cancer) cell-derived xenograft in NOD-SCID mice. Five mice per group were used in the study and all treatments were administered via an IV injection twice a week for four weeks. The amount of CP administered in the free CP group was 0.75 mg/kg, where the nanoparticles made from CP-bis (suc-PEG3-Oleoyl) and stabilised with 30% PEG4K-oleoyl (FIG. 7b), contained 0.75 mg/kg of equivalent CP.
# MCF7 cell line = experiment: Cell proliferation and cytotoxicity assay (MTS or crystal violet); format: cell-based; details: MCF7, 72 hours; prodrug tested as nanoparticles
# Experimental: as §1, §2
# [3] = tested on: CFPAC-1 (human pancreatic cancer) cell line-derived xenograft; experiment: In vivo tumour inhibition by dual prodrug nanoparticles, CFPAC-1 xenograft; parameters: species or system NOD-SCID gamma mouse (NSG); details: twice a week for 4 weeks; NPs IV with 4.5 mg/Kg Gem (dual: + 1 mg/Kg CP) equivalent; Gemcitabine 100 mg/Kg IP
# Experimental: In another study a dual drug chemotherapeutic prodrug nanoparticle was employed to treat a CFPAC-1 (human pancreatic cancer) cell line-derived xenograft in NOD-SCID gamma mouse (NSG) over 28 days. […] The control groups were injected with the commercially available free Gemcitabine at 100 mg/Kg and PBS (vehicle control). Gemcitabine group were administered by intraperitoneal (IP) injection due to high toxicity of IV injection. 24 mice were used in this study, treating 6 mice/group.
# [4] = Reduction kinetics of Pt (IV) prodrug nanoparticles with ascorbic acid (LC-MS); format: in vitro ADME; details: prodrug nanoparticles 0.1 mM, 37° C.
# Experimental: The reducing agent was applied at concentrations corresponding to those found in the living cells' environment, e.g. 1 mM ascorbic acid or 2 mM glutathione (GSH).
# Dispersed nanoparticles of Pt (IV) prodrug amphiphiles were mixed with GSH, ascorbic acid or their combination. The ratios of the reducing agents to platinum prodrugs were 10:1 or 50:1 for ascorbic acid and 20:1 for GSH. The reduction kinetics was analysed by LC-MS via monitoring the peaks related to each prodrug amphiphile. The prodrugs were detected by negative ions optimised for each platinum amphiphile. The reduction kinetics was plotted as the percentage of the area under the peak of Pt (IV)-prodrug compared to the peak before the addition of the reducing agent against the time of incubation. At each time point 10 μl of a sample withdrawn from the reaction solution was injected directly into a Phenomenex C8 150 mm×2 mm 5 μm Luna column (Phenomenex, Australia). A 100% Methanol solution was used as the mobile phase with a flow rate of 0.5 ml/min for 8 minutes. The sample after the column separation was eluted to the ESI source. […] The samples were well maintained at a temperature of 37° C. during the entire measurement by incubation in the temperature-controlled auto-sampler. Data was acquired and processed with Xcalibur Quan chromatography software.
# [5] = Mesophase behaviour by polarized optical microscopy (POM); format: physicochemical; details: 25° C. and 37° C.
# Experimental: Polarized Optical Microscopy (POM): Samples used for Polarized Optical Microscopy (POM) were prepared by placing a small amount of prodrug amphiphile on a microscope slide and covered with a cover slip. Water was placed on the edges of the cover slip and allowed to flow into the sample by capillary action. The microscope slide was placed in a Linkam PE94 hot stage (Linkam Scientific Instruments Ltd. Surrey, England) and heated at 3° C./min between room temperature and 50° C. […] Images were captured with a Nikon DS-Ri-1 camera. All images were taken at 100× magnification.
# The formation of lyotropic mesophases is based on the interaction of the prodrug amphiphile with water. Polarized optical microscopy was used to study the liquid crystalline or crystalline structures of the prodrug amphiphiles. This method was used as a preliminary and qualitative investigation to observe the morphological changes of the amphiphile as well as to predict the structural changes of the mesophases which may form upon hydration with water. For each prodrug amphiphile, a small amount of the neat and dry sample was placed on a microscope slide and covered with a cover slip. Water was placed on the edges of the cover slip to allow to flow into the sample by capillary action. Images were captured at 25° C. before and after the addition of water and at 37° C. after exposure to water. 37° C. was selected due to its physiological relevance. […]
# CACO2 cell line = experiment: Cell proliferation and cytotoxicity assay (MTS or crystal violet); format: cell-based; details: CACO2, 72 hours; prodrug tested as nanoparticles
# Experimental: as §1, §2
# [6] = 0.75 mg/kg CP or equivalent, IV twice a week for four weeks
molecule,measurement,setting,value
"N.N.[Cl][Pt][Cl] [Cisplatin, Cis-diamminedichloroplatinum (II)]",IC50,[1],3.6 µM
same,histopathology of the kidney,[2]; listed as CP,"sever pathological changes in the form of acute tubular necrosis, haemorrhage into many of the glomeruli and swelling of the capillaries"
same,histopathology of the kidney,[2]; listed as CP drug,acute tubular necrosis
same,average increase of body weight at the conclusion of the experiment,[2]; [6],14%
same,tumour growth inhibition (in words),[2]; [6],"growth inhibition to control PBS group, but less than group treated with nanoparticle"
same,IC50,MCF7 cell line,11.5 µM
Nc1ccn([C@@H]2O[C@H](CO)[C@@H](O)C2(F)F)c(=O)n1 [Gemcitabine],tumour growth inhibition (in words),[3],significantly reduced the tumour volume; also recorded: reduced the size of tumour significantly better than other groups
"cis,cis,trans-(PtC12 (succinoyl-triethyleneglycoyl-oleoyl)2) [CP-bis(suc-PEG3-oleoyl)]",reduction rate at 5 mM versus 1 mM ascorbic acid,[4],"slightly greater than 1 mM up to 4 h, however longer incubation time up to 7 h showed similar reduced prodrug at both concentrations"
same,IC50,[1],5.1 µM
same,POM observation on exposure to water,[5],lamellar and emulsified bands (L2 or L3) mesophases
same,IC50,MCF7 cell line,28.2 µM
same,IC50,CACO2 cell line,49 µM

# From patent publication US12194014B2, “Platinum-based amphiphile prodrugs” (NANOMED HOLDINGS PTY LTD, priority 2018, dated 2025)
